From US9285319B2, “Nucleic acid base analogs with quenching and fluorescent activities and applications thereof” (RIKEN, priority 2010, dated 2016)
Where two headings read alike, the source gives them in different places.

Key:
[1] = Fluorescence intensity of fluorescent molecule (Cy3) linked to Px base having a quenching activity; assay type: physicochemical; conditions: free substrate
[2] = target: T1, Klenow fragment not having exonuclease activity (KF exo−) (Escherichia coli, UniProt P00582, D355A/E357A); assay type: biochemical; conditions: for Km / Vmax: 37° C., SD in parentheses
T1 construct: a Klenow fragment not having exonuclease activity; purchased Amersham USB
T1 sequence (P00582 324-928 D355A/E357A): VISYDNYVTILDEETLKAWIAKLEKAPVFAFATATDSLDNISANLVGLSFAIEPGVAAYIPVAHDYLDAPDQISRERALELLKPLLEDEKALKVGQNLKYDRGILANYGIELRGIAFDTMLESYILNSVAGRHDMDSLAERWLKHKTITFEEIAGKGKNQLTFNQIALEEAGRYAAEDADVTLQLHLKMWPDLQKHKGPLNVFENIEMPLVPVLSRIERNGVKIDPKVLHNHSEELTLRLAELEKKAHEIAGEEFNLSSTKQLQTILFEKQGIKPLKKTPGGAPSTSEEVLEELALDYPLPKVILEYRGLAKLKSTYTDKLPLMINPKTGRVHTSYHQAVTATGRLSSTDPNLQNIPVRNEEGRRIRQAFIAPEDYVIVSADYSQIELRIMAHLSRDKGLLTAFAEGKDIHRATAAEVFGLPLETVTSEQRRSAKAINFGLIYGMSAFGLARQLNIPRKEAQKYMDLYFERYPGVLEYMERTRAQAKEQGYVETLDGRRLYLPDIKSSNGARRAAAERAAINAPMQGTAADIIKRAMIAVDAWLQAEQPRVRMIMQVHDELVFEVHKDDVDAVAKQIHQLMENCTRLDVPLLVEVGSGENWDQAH
Description: An experiment of single-base incorporation by a Klenow fragment was performed with reference to documents (Kimoto, M., Yokoyama, S., Hirao, I., Biotechnol. Lett., 2004, 26, 999-1005; Petruska, J., Goodman, M. F., Boosalis, M. S., Sowers, L. C., Cheong, C., Tinoco, I., Proc. Natl. Acad. Sci. USA, 1988, 85, 6252-6256; Goodman, M. F., Creighton, S., Bloom, L. B., Petruska, J., Crit. Rev. Biochem. Mol. Biol., 1993, 28, 83-126; Morales, J. C., Kool, E. T., Nat. Struct. Biol., 1998, 5, 950-954).
Specifically, a primer (20-mer, 5′-[…]-3′ (SEQ ID NO: 4) or 5′-[…]-3′ (SEQ ID NO: 5)) labeled with 6-carboxyfluorescein at the 5′ end and a template DNA (35-mer, 5′-AGCTCTDss[…]-3′ (SEQ ID NO: 6) or 5′-[…]-3′ (N=Pn, A, G, C, or T) (SEQ ID NO: 7)) were heated in a 100 mM Tris-HCl buffer (pH 7.5) containing 20 mM MgCl2, 2 mM DTT, and 100 μg/mL bovine serum albumin (BSA) at 95° C. and were then gradually cooled to 4° C. for annealing to form a double strand of the template and the primer.
An enzyme solution (2 μL) of a Klenow fragment not having exonuclease activity (KF exo−, Amersham USB) was added to 5 μL of each primer-template double-stranded DNA solution (10 μM). The mixture was incubated at 37° C. for 2 minutes to form a DNA/enzyme complex. To this solution, 3 μL of each substrate solution, i.e., nucleoside triphosphate solution (Dss, Pn, or one of A, G, C, and T, 1 μM to 5 mM) was added, followed by an enzyme reaction at 37° C. (for 1 to 35 minutes). The reaction was terminated by adding 10 μL of a 20 mM EDTA solution in 95% formamide (stop solution) to the reaction solution and heating the solution at 75° C. for 3 minutes.
The reaction conditions are summarized as follows. For each solution (10 μL), 5 μM primer-template double strand, 5 to 50 nM enzyme, and 0.3 to 1500 μM substrate are used. The solution (10 μL) contains 50 mM Tris-HCl (pH 7.5), 10 mM MgCl2, 1 mM DTT, and 0.05 mg/mL BSA. The reaction is performed at 37° C. for 1 to 35 minutes.
A part of the reaction solution was diluted with the stop solution, and 0.5 μL of the diluted reaction solution was mixed with 3 μL of a loading solution (deionized formamide: 50 mg/mL blue dextran solution containing 25 mM EDTA=5:1). The solution mixture was heated at 90° C. for 2 minutes and then was rapidly cooled on ice. About 0.5 μL of the solution was loaded on every other lane of a sequencing gel for electrophoresis. The sequencing gel (36 cm WTR) was composed of 6 M urea, 10% polyacrylamide (acrylamide:bisacrylamide=19:1), and 0.5×TBE. The buffer used for the electrophoresis was 0.5×TBE. The Run Module was GS Run 36C-2400. The time for electrophoresis was about 1 hour, and the peak patterns of the reaction products were analyzed and quantitatively measured by an automated ABI377 DNA sequencer equipped with GeneScan software (version 3.0).
The proportion of the primer extended by one nucleotide was determined from the peak area of the unreacted primer fragment and the peak area of the DNA fragment extended by single-base incorporation, and enzymatic parameters Vmax and KM were calculated by Hanes-Woolf plot (Goodman, M. F., Creighton, S., Bloom, L. B., Petruska, J., Crit. Rev. Biochem. Mol. Biol., 1993, 28, 83-126). The Vmax value was standardized to 20 nM enzyme concentration and 5 μM double strand concentration for various enzyme and double-strand concentrations used.

[3] = template N = T, primer 5′-ACTCACTATAGGGAGCTTCT
[4] = template N = Dss, primer 5′-[…]
[5] = template N = A, primer 5′-ACTCACTATAGGGAGGAAGA

Q: With “1-(2-deoxy-β-D-ribofuranosyl-4-[3-(Cy3-carboxamide hexanamide)-1-propynyl]-2-nitropyrrole 5′-triphosphate [Cy3-hx-dPxTP]” as the compound, how does the “fluorescence intensity of fluorescent molecule quenched when linked to Px base” value [1] read?
A: The value was “about 30%”.

Q: Which “Efficiency (Vmax/KM)” value [2, 3] does the source give for Nc1ncnc2c1ncn2[C@H]1C[C@H](O)[C@@H](COP(=O)(O)OP(=O)(O)OP(=O)(O)O)O1 [dATP, deoxyriboadenosine triphosphate] here?
A: The value was 4.0 × 10^6 % min^−1 M^−1.

Q: What about the Km [2, 3] of the same compound?
A: The Km was 0.81 µM.

Q: And the Vmax [2, 3]?
A: Its Vmax is 3.3 (1.8) % min^−1.

Q: For O=[N+]([O-])c1cccn1[C@H]1C[C@H](O)[C@@H](COP(=O)(O)OP(=O)(O)OP(=O)(O)O)O1 [dPnTP], which “Efficiency (Vmax/KM)” value [2, 4] is on record?
A: Its value is 1.1 × 10^5 % min^−1 M^−1.

Q: And the Km [2, 4]?
A: The Km was 100 µM.

Q: What about the Vmax [2, 4] of the same compound?
A: Its Vmax is 11 (3) % min^−1.

Q: Which results are given for deoxyribothymidine triphosphate [dTTP]?
A: Efficiency (Vmax/KM) [2, 5]: 4.0 × 10^6 % min^−1 M^−1; Km [2, 5]: 0.7 µM; Vmax [2, 5]: 2.8 (1.5) % min^−1
